Experimental data taken from US5081152A, “Azulene derivatives as thromboxane A2 and prostaglandin endoperoxide receptor antagonist” (Kotobuki Seiyaku Co., Ltd., priority 1989, dated 1992).
Structures can show the parent of a compound that is named as a salt.

target: T1, Thromboxane A2 receptor (Rattus norvegicus, UniProt P34978); assay: Thromboxane A2 receptor antagonistic action (inhibitory action of U-46619-induced contractions of rat aortic strips); assay type: cell-based; settings: isolated helical strips of rat aorta precontracted with 3×10^-8 M U-46619; read-out: IC50 (the concentrations which inhibited the contraction by 50%)
T1 sequence (P34978 1-341): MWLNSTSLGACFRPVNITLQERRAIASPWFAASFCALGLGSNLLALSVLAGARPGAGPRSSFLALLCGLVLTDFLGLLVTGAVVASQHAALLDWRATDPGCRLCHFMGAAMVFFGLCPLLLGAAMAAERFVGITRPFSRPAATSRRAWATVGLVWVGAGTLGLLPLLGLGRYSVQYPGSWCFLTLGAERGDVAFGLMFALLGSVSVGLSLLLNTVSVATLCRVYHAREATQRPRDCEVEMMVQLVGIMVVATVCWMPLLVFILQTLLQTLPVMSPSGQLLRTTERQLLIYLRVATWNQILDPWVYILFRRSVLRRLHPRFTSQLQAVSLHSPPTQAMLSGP

Row | IC50 | Compound
1 | 52 nM | CC(C)c1ccc2c(C/C=C\CNS(=O)(=O)c3ccccc3)cc(C(=O)O)c-2cc1 [Compound 68, 6-isopropyl-3-[4-(benzenesulfonylamino)-cis-2-butenyl]-azulene-1-carboxylic acid]
2 | 460 nM | CC(C)c1ccc2c(C/C=C/CNS(=O)(=O)c3ccccc3)cc(C(=O)O)c-2cc1 [Compound 69, 6-isopropyl-3-[4-(benzenesulfonylamino)-trans-2-butenyl]-azulene-1-carboxylic acid]
3 | 17 nM | CC(C)c1ccc2c(CCCCNS(=O)(=O)c3ccccc3)cc(S(=O)(=O)O)c-2cc1 [sodium salt]
